Measurements from patent publication US20100267561A1, “HERBICIDAL PYRIDAZINONE DERIVATIVES” (priority 2007, published 2010).

What was measured:
Assay in all cases: Test B pre-/postemergence plant response
Format in all cases: in vivo
[1] = tested on: goosegrass (Eleusine indica); settings: for Goosegrass plant response rating: 8 g ai/ha
How it was run: (§1)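 Seeds were sown and sprayed preemergence, while plants at 2 to 18 cm (1- to 4-leaf stage) got postemergence sprays. Compounds were formulated in a non-phytotoxic solvent mixture with surfactant. After 13 to 15 days in a greenhouse, injury was rated visually against untreated controls, 0 (no effect) to 100 (complete control).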

[2] = tested on: cocklebur (Xanthium strumarium); settings: for Cocklebur plant response rating: 8 g ai/ha
How it was run: as §1

[3] = tested on: common ragweed (Ambrosia elation); settings: for Ragweed plant response rating: 8 g ai/ha
How it was run: as §1

[4] = tested on: woolly cupgrass (Eriochloa villosa); settings: for Cupgrass, Woolly plant response rating: 8 g ai/ha
How it was run: as §1

[5] = tested on: johnsongrass (Sorghum halepense); settings: for Johnsongrass plant response rating: 8 g ai/ha
How it was run: as §1

[6] = tested on: blackgrass (Alopecurus myosuroides); settings: for Blackgrass plant response rating: 8 g ai/ha
How it was run: as §1

[7] = tested on: large crabgrass (Digitaria sanguinalis); settings: for Crabgrass, Large plant response rating: 8 g ai/ha
How it was run: as §1

[8] = tested on: velvetleaf (Abutilon theophrasti); settings: for Velvetleaf plant response rating: 8 g ai/ha
How it was run: as §1

[9] = tested on: yellow nutsedge (Cyperus esculentus); settings: for Nutsedge, Yellow plant response rating: 8 g ai/ha
How it was run: as §1

[10] = tested on: corn (Zea mays); settings: for Corn plant response rating: 8 g ai/ha
How it was run: as §1

[11] = tested on: Russian thistle (Salsola iberica); settings: Preemergence
How it was run: as §1

[12] = tested on: kochia (Kochia scoparia); settings: for Kochia plant response rating: 8 g ai/ha
How it was run: as §1

[13] = tested on: catchweed bedstraw (Galium aparine); settings: Preemergence
How it was run: as §1

[14] = tested on: wild oat (Avena fatua); settings: for Oat, Wild plant response rating: 8 g ai/ha
How it was run: as §1

[15] = Postemergence, 16 g ai/ha, scale 0 to 100
[16] = Postemergence, 31 g ai/ha, scale 0 to 100, 0 no effect, 100 complete control
[17] = Postemergence, 62 g ai/ha, scale 0 to 100, 0 no effect, 100 complete control
[18] = Preemergence, 16 g ai/ha, scale 0 to 100 (0 no effect, 100 complete control)
[19] = Preemergence, 31 g ai/ha, 0 to 100 scale, 0 no effect, 100 complete control
[20] = Preemergence, 62 g ai/ha, scale 0 to 100
[21] = 16 g ai/ha, scale 0 to 100 (0 no effect, 100 complete control)
[22] = 31 g ai/ha, 0 to 100 scale, 0 no effect, 100 complete control

Compound: COC(=O)Oc1cnn(C)c(=O)c1-n1nc(-c2ccc(Cl)cc2)cc1C [Compound 33]
- Goosegrass plant response rating ([1]; postemergence, 0-100 scale): 50
- Plant response rating, Goosegrass [1, 15]: 70
- Plant response rating, Goosegrass [1, 16]: 90
- Plant response rating, Goosegrass [1, 17]: 100
- Plant response rating, Goosegrass [1, 18]: 98
- Plant response rating, Goosegrass [1, 19]: 98
- Plant response rating, Goosegrass [1, 20]: 98
- Goosegrass plant response rating ([1]; Preemergence, scale 0 to 100): 85
- Cocklebur plant response rating ([2]; postemergence, 0-100 scale): 0
- Plant response rating, Cocklebur [2, 15]: 0
- Plant response rating, Cocklebur [2, 16]: 0
- Plant response rating, Cocklebur [2, 17]: 0
- Plant response rating, Cocklebur [2, 18]: 0
- Plant response rating, Cocklebur [2, 19]: 0
- Cocklebur plant response rating ([2]; Preemergence, scale 0 to 100): 0
- Ragweed plant response rating ([3]; postemergence, 0-100 scale): 0
- Plant response rating, Ragweed [3, 15]: 0
- Plant response rating, Ragweed [3, 16]: 0
- Plant response rating, Ragweed [3, 17]: 0
- Plant response rating, Ragweed [3, 18]: 0
- Plant response rating, Ragweed [3, 19]: 0
- Plant response rating, Ragweed [3, 20]: 0
- Ragweed plant response rating ([3]; Preemergence, scale 0 to 100): 0
- Cupgrass, Woolly plant response rating ([4]; postemergence, 0-100 scale): 98
- Plant response rating, Cupgrass, Woolly [4, 15]: 100
- Plant response rating, Cupgrass, Woolly [4, 16]: 100
- Plant response rating, Cupgrass, Woolly [4, 17]: 100
- Plant response rating, Cupgrass, Woolly [4, 18]: 90
- Plant response rating, Cupgrass, Woolly [4, 19]: 100
- Plant response rating, Cupgrass, Woolly [4, 20]: 100
- Cupgrass, Woolly plant response rating ([4]; Preemergence, scale 0 to 100): 80
- Johnsongrass plant response rating ([5]; postemergence, 0-100 scale): 70
- Plant response rating, Johnsongrass [5, 15]: 70
- Plant response rating, Johnsongrass [5, 16]: 85
- Plant response rating, Johnsongrass [5, 17]: 90
- Plant response rating, Johnsongrass [5, 18]: 95
- Plant response rating, Johnsongrass [5, 19]: 98
- Plant response rating, Johnsongrass [5, 20]: 100
- Johnsongrass plant response rating ([5]; Preemergence, scale 0 to 100): 60
- Blackgrass plant response rating ([6]; postemergence, 0-100 scale): 70
- Plant response rating, Blackgrass [6, 15]: 70
- Plant response rating, Blackgrass [6, 16]: 80
- Plant response rating, Blackgrass [6, 17]: 95
- Plant response rating, Blackgrass [6, 18]: 100
- Plant response rating, Blackgrass [6, 19]: 100
- Plant response rating, Blackgrass [6, 20]: 100
- Blackgrass plant response rating ([6]; Preemergence, scale 0 to 100): 60
- Crabgrass, Large plant response rating ([7]; postemergence, 0-100 scale): 70
- Plant response rating, Crabgrass, Large [7, 15]: 90
- Plant response rating, Crabgrass, Large [7, 16]: 90
- Plant response rating, Crabgrass, Large [7, 17]: 100
- Plant response rating, Crabgrass, Large [7, 18]: 95
- Plant response rating, Crabgrass, Large [7, 19]: 95
- Plant response rating, Crabgrass, Large [7, 20]: 98
- Crabgrass, Large plant response rating ([7]; Preemergence, scale 0 to 100): 70
- Velvetleaf plant response rating ([8]; postemergence, 0-100 scale): 0
- Plant response rating, Velvetleaf [8, 15]: 0
- Plant response rating, Velvetleaf [8, 17]: 5
- Plant response rating, Velvetleaf [8, 18]: 0
- Plant response rating, Velvetleaf [8, 19]: 0
- Velvetleaf plant response rating ([8]; Preemergence, scale 0 to 100): 0
- Nutsedge, Yellow plant response rating ([9]; postemergence, 0-100 scale): 0
- Plant response rating, Nutsedge, Yellow [9, 15]: 0
- Plant response rating, Nutsedge, Yellow [9, 16]: 0
- Plant response rating, Nutsedge, Yellow [9, 17]: 0
- Plant response rating, Nutsedge, Yellow [9, 18]: 0
- Plant response rating, Nutsedge, Yellow [9, 19]: 0
- Plant response rating, Nutsedge, Yellow [9, 20]: 0
- Nutsedge, Yellow plant response rating ([9]; Preemergence, scale 0 to 100): 0
- Corn plant response rating ([10]; postemergence, 0-100 scale): 80
- Plant response rating, Corn [10, 15]: 95
- Plant response rating, Corn [10, 16]: 100
- Plant response rating, Corn [10, 17]: 100
- Plant response rating, Corn [10, 18]: 85
- Plant response rating, Corn [10, 19]: 90
- Plant response rating, Corn [10, 20]: 95
- Corn plant response rating ([10]; Preemergence, scale 0 to 100): 50
- Plant response rating, Russian Thistle [11, 21]: 0
- Plant response rating, Russian Thistle [11, 22]: 0
- Plant response rating, Russian Thistle ([11]; 62 g ai/ha, scale 0 to 100): 80
- Russian Thistle plant response rating ([11]; 8 g ai/ha, scale 0 to 100): 0
- Kochia plant response rating ([12]; postemergence, 0-100 scale): 0
- Plant response rating, Kochia [12, 15]: 0
- Plant response rating, Kochia [12, 16]: 0
- Plant response rating, Kochia [12, 17]: 0
- Plant response rating, Kochia [12, 19]: 0
- Plant response rating, Kochia [12, 20]: 0
- Kochia plant response rating ([12]; Preemergence, scale 0 to 100): 0
- Plant response rating, Galium [13, 21]: 0
- Plant response rating, Galium [13, 22]: 0
- Plant response rating, Galium ([13]; 62 g ai/ha, scale 0 to 100): 0
- Galium plant response rating ([13]; 8 g ai/ha, scale 0 to 100): 0
- Oat, Wild plant response rating ([14]; postemergence, 0-100 scale): 90
- Plant response rating, Oat, Wild [14, 15]: 95
- Plant response rating, Oat, Wild [14, 16]: 95
- Plant response rating, Oat, Wild [14, 17]: 98
- Plant response rating, Oat, Wild [14, 18]: 80
- Plant response rating, Oat, Wild [14, 19]: 80
- Plant response rating, Oat, Wild [14, 20]: 90
- Oat, Wild plant response rating ([14]; Preemergence, scale 0 to 100): 70
